Measured values: article PMC6271241, “Several Human Cyclin-Dependent Kinase Inhibitors, Structurally Related to Roscovitine, As New Anti-Malarial Agents” (Molecules, 2014)
Read-outs that look alike come from different tables or passages of the source.

What was measured:
[1] = target: T1, CDK5/p25 (Homo sapiens, UniProt Q00535); assay: CDK5/p25 kinase assay ([γ-33P] ATP, histone H1); assay type: biochemical
T1 construct: made in house
Protocol: (§1) CDK1/cyclin B (M phase starfish oocytes, native), CDK2/cyclin A (human, recombinant) and CDK5/p25 (human, recombinant) were prepared as previously described. […] ATP (3000 Ci/mmol; 10 mCi/mL) in a final volume of 30 µL. After 30 min incubation at 30 °C, 25 µL aliquots of supernatant were spotted onto 2.5 cm × 3 cm pieces of Whatman P81 phosphocellulose paper, and, 20 s later, the filters were washed five times (for at least 5 min each time) in a solution of 10 mL of phosphoric acid/liter of water. The wet filters were counted in the presence of 1 mL of ACS (Amersham, Pittsburgh, PA, USA) scintillation fluid.

[2] = test system: Pf3D7; assay: [3H]hypoxanthine incorporation growth assay, Pf3D7; assay type: cell-based, Plasmodium falciparum; conditions: for IC50: Plasmodium falciparum
Protocol: (§2) A selection of 15 molecules 4b–c, 10–13 representing the different 2,6,9-trisubstituted purine series, including newly synthesized products was screened as anti-malarial agents on two different P. falciparum strains, Pf3D7, a standard drug-sensitive African stain, and Pf7G8, a brazilian chloroquino-resistant strain (Figure 3). The compound activity was evaluated during the parasitic erythocytic cycle, by the means of a [^3H] hypoxanthine incorporation assay. It is directly correlated to parasite viability, as described in the experimental section.
(§3) At first, the activity of the fifteen compounds was screened at three different concentrations (10, 50 and 100 µM) on Pf3D7. Chloroquine which is not a kinase inhibitor, but which is the antimalarial reference drug was used as the positive control. […] Chloroquine was again used as a positive control.
(§4) Compounds were tested against synchronous ring-stage parasites of Pf3D7 and Pf7G8 strains. Drugs testing were carried out in 96-well microtiter plates. The chloroquine (CQ) diphosphate was purchased from Sigma (Lyon, France). […] For each assay, each drug dilution was analyzed in triplicate.
(§5) For the in vitro isotopic microtest, 200 µL of the suspension of synchronous parasitized red blood cells with >90% of the parasites at the ring stage (final parasitaemia, 0.3%; final haematocrit, 4%) per well were plated in 96-well plates that contained serial CQ or compounds concentrations. […] The plates were incubated at 37 °C, in an atmosphere of 5% O2, 5% CO2, and 90% N2 for 48 h. Immediately after incubation, plates were frozen and then thawed to lyse the erythrocytes. Cultures were harvested onto glass fiber filters and washed using a cell harvester (FilterMAT; Skatron Instruments, Dalsletta, Norway). The dried fiber filter papers were mixed with 2 mL of scintillation fluid (OptiScint; Perkin-Elmer, Waltham, UK). […] The initial value and the asymptotic result for high concentrations were fixed to 0% and 100%, respectively, available on the web.

[3] = test system: Pf7G8; assay: [3H]hypoxanthine incorporation growth assay, Pf7G8; assay type: cell-based, Plasmodium falciparum; conditions: for IC50: Plasmodium falciparum
Protocol: as §2, §3, §4, §5

[4] = target: CDK1/cyclin B; assay: CDK1/cyclin B kinase assay ([γ-33P] ATP, histone H1); assay type: biochemical, starfish; conditions: Table A1; read-out: IC50 on HsCDKs HsCDK1
[5] = target: CDK1/cyclin B; assay: as above; assay type: biochemical, starfish; conditions: 15 µM ATP, Table 1
Protocol: as §1

[6] = target: CK1δ/ε; assay: CK1δ/ε kinase assay (CKS peptide); conditions: read-out: IC50 CK1δ/ε; 15 µM ATP; Table 1
Protocol: (§6) The effects on CDK1/cyclin B, CDK2/cyclin A, CDK5/p25, GSK-3αβ, CK1δ/ε and DYRK1A kinase activity are reported as the IC50 values calculated from dose-response curves. The inhibition was determined covering a range of concentrations of the compounds by means of a [γ-^33P] assay as described in the experimental section.
(§7) Controls were performed with appropriate dilutions of DMSO.

[7] = target: GSK-3α/β; assay: GSK-3α/β kinase assay (GS-1 peptide); conditions: read-out: IC50 GSK-3αβ; 15 µM ATP; Table 1; >10 = no activity at 10 µM
Protocol: as §6, §7
GSK-3α/β (porcine brain, native) was assayed, as described for CDK1 but in Buffer A and using a GSK-3 specific substrate (GS-1: [sequence]pEDEEE) (pS stands for phosphorylated serine).

[8] = target: T2, CDK2/cyclin A (Homo sapiens, UniProt P24941); assay: CDK2/cyclin A kinase assay ([γ-33P] ATP, histone H1); assay type: biochemical; conditions: 15 µM ATP, Table 1
T2 construct: made in house
Protocol: as §1

[9] = target: DYRK1A (Homo sapiens, UniProt Q13627); assay: DYRK1A kinase assay (Woodtide); assay type: biochemical; conditions: 15 µM ATP; Table 1
[10] = test system: CDK1/cyclin B; design: method as in PMID 18698753; conditions: previously reported; cited from earlier work
[11] = test system: CK1δ/ε; design: method as in PMID 18698753; conditions: previously reported; read-out: IC50 CK1; cited from earlier work
[12] = Table A1, read-out: IC50 on HsCDKs HsCDK5
[13] = 48 h, drug-sensitive strain, 48 h, Table 2, read-out: Growth IC50 Pf3D7
[14] = Table A1, N.I. = not inhibitor, read-out: IC50 on P. falciparum Strains Pf3D7
[15] = Table A1, N.I. = not inhibitor, read-out: IC50 on P. falciparum Strains Pf7G8
[16] = chloroquino-resistant strain, 48 h, Table 2, read-out: Growth IC50 Pf7G8
[17] = CDK5/p25, 15 µM ATP, Table 1, read-out: IC50 CDK5

T1 sequence (Q00535 whole entry): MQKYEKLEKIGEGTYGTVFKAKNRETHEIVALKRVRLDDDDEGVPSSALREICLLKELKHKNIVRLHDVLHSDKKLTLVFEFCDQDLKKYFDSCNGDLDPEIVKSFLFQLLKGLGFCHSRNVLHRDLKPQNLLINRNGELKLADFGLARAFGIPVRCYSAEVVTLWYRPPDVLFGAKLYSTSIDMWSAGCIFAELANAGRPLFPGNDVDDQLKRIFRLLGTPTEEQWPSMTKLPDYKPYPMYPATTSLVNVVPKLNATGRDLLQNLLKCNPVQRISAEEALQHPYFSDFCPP
T1 sequence (Q15078 99-307 partner limits assumed): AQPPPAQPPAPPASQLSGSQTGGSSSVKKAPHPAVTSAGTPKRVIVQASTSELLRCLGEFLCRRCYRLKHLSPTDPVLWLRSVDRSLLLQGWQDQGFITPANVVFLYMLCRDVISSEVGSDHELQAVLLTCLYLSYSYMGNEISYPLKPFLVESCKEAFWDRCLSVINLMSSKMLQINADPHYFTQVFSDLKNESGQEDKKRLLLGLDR

Row | SMILES | IC50 [1, 12] [nM] | IC50 [2, 14] [nM] | IC50 [3, 15] [nM] | IC50 [3, 16] [nM] | IC50 [4] [nM] | IC50 [5] [nM] | IC50 [1, 17] [nM] | IC50 [6] [nM] | IC50 [7] [nM] | IC50 on P. falciparum Strains Pf3D7 ([2]; Table A1, N.I. = not inhibitor) | IC50 on P. falciparum Strains Pf7G8 ([3]; Table A1, N.I. = not inhibitor) | also measured
1 | CC[C@@H](CO)Nc1nc(Nc2ccc(-c3ncccn3)cc2)c2ncn(C(C)C)c2n1 [Compound 19] | 270 | 7130 | 1820 | 1820 | 500 | – | – | – | – | – | – | IC50 [2, 13]: 7130 nM
2 | CC[C@@H](CO)Nc1nc(Nc2cccc(-c3ccccn3)c2)c2ncn(C(C)C)c2n1 [Compound 11, (S)-2-(1-Hydroxybut-2-ylamino)-6-[3-(2-pyridyl)phenylamino]-9-iso-propylpurine] | – | 6530 | 2060 | 2060 | 800 | 800 | 400 | 40 | > 10000 | – | – | IC50 [2, 13]: 6530 nM
3 | CC(C)n1cnc2c(Nc3cccnc3)nc(Nc3ncccn3)nc21 [Compound 4c] | – | – | – | – | 3000 | 3000 | 4300 | > 10000 | > 10000 | N.I. | N.I. | IC50 [8]: 1800 nM; IC50 [9]: 8000 nM
4 | CC(C)n1cnc2c(Nc3ccccn3)nc(Nc3ncccn3)nc21 [Compound 4b] | > 10000 | – | – | – | – | – | > 10000 | > 10000 | > 10000 | N.I. | N.I. | IC50 [9]: 8000 nM
5 | CC(C)n1cnc2c(Nc3ccc(Br)cc3)nc(-c3ccncc3)nc21 [Compound 22] | 600 | 1390 | 990 | 990 | 600 | – | – | – | – | – | – | IC50 [2, 13]: 1390 nM; IC50 [10]: 590 nM; IC50 [11]: 80 nM
6 | CC(C)n1cnc2c(Nc3cnccn3)nc(Nc3cnccn3)nc21 [Compound 6] | – | – | – | – | – | – | – | 1100 | > 10000 | – | – | IC50 [8]: 2800 nM; IC50 [9]: 500 nM
7 | CC[C@H](CO)Nc1nc(Nc2ccc(-c3cccnc3)nc2)c2ncn(C(C)C)c2n1 [Compound 10, (R)-2-(1-Hydroxybut-2-ylamino)-6-[6-(3-pyridyl)pyrid-3-ylamino]-9-iso-propylpurine] | – | – | – | – | 10 | 10 | 30 | 200 | > 10000 | N.I. | N.I. | –
8 | CC[C@@H](CO)Nc1nc(Nc2cccc(-c3ncccn3)c2)c2ncn(C(C)C)c2n1 [Compound 20] | 500 | 22200 | 4660 | 4660 | 700 | – | – | – | – | – | – | IC50 [2, 13]: 22200 nM
9 | CC(C)n1cnc2c(Nc3cccc(-c4cccnc4)c3)nc(Cl)nc21 [Compound 17] | 50 | – | – | – | 180 | – | – | – | – | N.I. | N.I. | –
10 | CCN(CC)CCCC(C)Nc1ccnc2cc(Cl)ccc12 (stereo not shown) [Chloroquine, chloroquine, reference compound] | – | – | – | – | – | – | – | – | – | – | – | IC50 ([2]; 48 h, read-out: Growth IC50 Pf3D7): 30 nM; IC50 ([3]; 48 h, read-out: Growth IC50 Pf7G8): 180 nM
11 | CC[C@@H](CO)Nc1nc(Nc2ccc(-c3ccccn3)cc2)c2ncn(C(C)C)c2n1 [Compound 13, (S)-2-(1-Hydroxybut-2-ylamino)-6-[4-(2-pyridyl)phenylamino]-9-iso-propylpurine] | – | – | – | – | 200 | 200 | – | 500 | > 10000 | N.I. | N.I. | IC50 [8]: 200 nM
12 | CC[C@H](CO)Nc1nc(Nc2ccc(-c3cncnc3)cc2)c2ncn(C(C)C)c2n1 [Compound 21] | 60 | 3050 | 690 | 690 | 40 | – | – | – | – | – | – | IC50 [2, 13]: 3050 nM
13 | CC(C)n1cnc2c(Nc3ccncc3)nc(Nc3ncccn3)nc21 [Compound 4d] | – | – | – | – | – | 9300 | 7000 | 2800 | > 10000 | – | – | IC50 [9]: 5200 nM
14 | CC[C@@H](CO)Nc1nc(Nc2cccc(-c3cccnc3)c2)c2ncn(C(C)C)c2n1 [Compound 12, (S)-2-(1-Hydroxybut-2-ylamino)-6-[3-(3-pyridyl)phenylamino]-9-iso-propylipurine] | – | 5370 | 1550 | 1550 | 200 | 200 | 100 | 200 | > 10000 | – | – | –
15 | CC[C@H](CO)Nc1nc(Nc2cccc(-c3cccnc3)c2)c2ncn(C(C)C)c2n1 [Compound 15] | 50 | – | – | – | 180 | – | – | – | – | N.I. | N.I. | –
16 | CC(C)n1cnc2c(Nc3ccc(Br)cc3)nc(Nc3ncccn3)nc21 [Compound 4a] | – | – | – | – | – | – | 1000 | 1000 | 1000 | – | – | IC50 [9]: 3000 nM
17 | CC[C@H](CO)Nc1nc(Nc2ccc(-c3ccccn3)cc2)c2ncn(C(C)C)c2n1 [Compound 14] | 30 | – | – | – | 50 | – | – | – | – | N.I. | N.I. | –
18 | CC(C)n1cnc2c(Nc3cncnc3)nc(Nc3cncnc3)nc21 [Compound 5] | – | – | – | – | – | – | 400 | – | – | – | – | IC50 [8]: 200 nM
19 | CC(C)n1cnc2c(Nc3ccc(Br)cc3)nc(-c3cccnc3)nc21 [Compound 18] | 730 | – | – | – | 410 | – | – | – | – | N.I. | N.I. | IC50 [10]: 410 nM; IC50 [11]: 100 nM
20 | CC[C@@H](CO)Nc1nc(Nc2ccc(-c3cncnc3)cc2)c2ncn(C(C)C)c2n1 [Compound 16] | 100 | – | – | – | 180 | – | – | – | – | N.I. | N.I. | –
